Test [1] has as its target Adenosine receptor A2a (Homo sapiens, UniProt P29274). The test can be described thus: DRUGMATRIX: Adenosine A2A radioligand binding (ligand: […]). Format: cell membranes, HEK293, Membrane. The note with it: hek293; Not Active = under 50% inhibition at 10 µM.
For test [2], the target named is T1, Muscarinic acetylcholine receptor M4 (Homo sapiens, UniProt P08173). Further: in other assays of this panel Not Active means under 50% inhibition at 10 µM.
T1 sequence (P08173 whole entry): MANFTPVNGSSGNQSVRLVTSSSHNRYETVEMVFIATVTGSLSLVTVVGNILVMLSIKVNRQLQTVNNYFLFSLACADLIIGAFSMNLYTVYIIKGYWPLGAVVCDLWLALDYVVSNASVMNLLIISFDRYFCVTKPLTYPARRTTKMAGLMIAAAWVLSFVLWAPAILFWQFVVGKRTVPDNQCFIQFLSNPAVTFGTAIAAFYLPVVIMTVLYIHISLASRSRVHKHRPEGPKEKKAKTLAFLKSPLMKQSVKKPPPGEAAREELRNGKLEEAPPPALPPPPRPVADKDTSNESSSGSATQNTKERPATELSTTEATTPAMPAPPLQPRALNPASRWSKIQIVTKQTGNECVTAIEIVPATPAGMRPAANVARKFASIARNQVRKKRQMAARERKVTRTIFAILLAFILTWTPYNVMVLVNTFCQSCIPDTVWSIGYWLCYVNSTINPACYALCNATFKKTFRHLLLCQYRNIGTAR
Format: cell membranes, CHO-K1, Membrane. The note with it: for Ki: read-out: Ki.

The target of test [3] is T2, Neutrophil elastase (Homo sapiens, UniProt P08246).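 Further: inhibition of neutrophil elastase enzyme activity, measured with a p-nitroanilide-linked peptide substrate; in other assays of this panel Not Active means under 50% inhibition at 10 µM.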
T2 sequence (P08246 whole entry): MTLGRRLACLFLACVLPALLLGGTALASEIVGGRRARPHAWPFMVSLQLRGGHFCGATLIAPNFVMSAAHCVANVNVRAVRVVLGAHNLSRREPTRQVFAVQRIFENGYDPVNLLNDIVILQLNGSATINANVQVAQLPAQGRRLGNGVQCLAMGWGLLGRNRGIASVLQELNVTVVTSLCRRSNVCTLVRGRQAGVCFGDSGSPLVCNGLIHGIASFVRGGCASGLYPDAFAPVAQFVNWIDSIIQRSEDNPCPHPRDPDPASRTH
The test is classed as tissue-based.

In test [4] the target is Kappa-type opioid receptor (Homo sapiens, UniProt P41145). The test can be described thus: DRUGMATRIX: Opiate kappa (OP2, KOP) radioligand binding (ligand: [3H] Diprenorphine). Format: cell membranes, HEK293, Membrane. The note with it: hek293; Not Active = under 50% inhibition at 10 µM.
Test [5] has as its target T3, Alpha-2A adrenergic receptor (Homo sapiens, UniProt P08913). Further: in other assays of this panel Not Active means under 50% inhibition at 10 µM.
T3 sequence (P08913 whole entry): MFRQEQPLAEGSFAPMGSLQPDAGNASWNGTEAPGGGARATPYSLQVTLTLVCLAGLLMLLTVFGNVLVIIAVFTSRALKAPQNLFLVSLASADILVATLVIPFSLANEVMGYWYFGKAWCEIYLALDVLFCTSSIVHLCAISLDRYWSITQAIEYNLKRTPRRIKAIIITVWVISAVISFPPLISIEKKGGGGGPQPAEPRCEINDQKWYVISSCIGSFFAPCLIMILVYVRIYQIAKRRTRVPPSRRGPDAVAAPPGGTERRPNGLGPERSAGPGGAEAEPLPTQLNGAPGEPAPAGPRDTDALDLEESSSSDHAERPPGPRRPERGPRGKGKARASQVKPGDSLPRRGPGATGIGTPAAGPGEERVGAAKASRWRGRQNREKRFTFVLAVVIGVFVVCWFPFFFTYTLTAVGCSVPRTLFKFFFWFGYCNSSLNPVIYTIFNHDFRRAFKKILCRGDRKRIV
Format: cell membranes, Sf9, Membrane.

Test [6] in a line: DRUGMATRIX: Sodium/nucleoside co-transporter radioligand binding (ligand: nitrobenzylthioinosine). The test is classed as cell membranes, Cavia porcellus, Dunkin-Hartley, Cerebral cortex, Membrane. The note with it: Not Active = under 50% inhibition at 10 µM.
Test [7] has as its target cGMP-specific 3',5'-cyclic phosphodiesterase (Homo sapiens, UniProt O76074). Kind of test: DRUGMATRIX: Phosphodiesterase PDE5 enzyme inhibition (substrate: [3H]cGMP + cGMP). The settings on record: platelet; Not Active = under 50% inhibition at 10 µM. The test is classed as tissue-based, Platelet.
For test [8], the target named is Beta-2 adrenergic receptor (Homo sapiens, UniProt P07550). The test can be described thus: DRUGMATRIX: Adrenergic beta2 radioligand binding (ligand: [3H] CGP-12177). The test is classed as cell membranes, Membrane. The note with it: cho; Not Active = under 50% inhibition at 10 µM.
The nature of test [9]: DRUGMATRIX: Calcium Channel Type L, Phenylalkylamine radioligand binding (ligand: [3H] (-)-Desmethoxyverapamil (D-888)). The settings on record: Not Active = under 50% inhibition at 10 µM. Format: cell membranes, Rattus norvegicus, Wistar, Brain, Membrane.
The target in test [10] is Beta-1 adrenergic receptor (Homo sapiens, UniProt P08588). The test can be described thus: DRUGMATRIX: Adrenergic beta1 radioligand binding (ligand: [125I] Cyanopindolol). The settings on record: cho-k1; Not Active = under 50% inhibition at 10 µM. The test is classed as cell membranes, CHO-K1, Membrane.
Test [11] concerns the target D(1A) dopamine receptor (Homo sapiens, UniProt P21728). Kind of test: DRUGMATRIX: Dopamine D1 radioligand binding (ligand: [3H] SCH-23390). The test is classed as cell membranes, CHO, Membrane. The settings on record: cho; Not Active = under 50% inhibition at 10 µM.
The target in test [12] is T4, Polyunsaturated fatty acid lipoxygenase ALOX15 (Oryctolagus cuniculus, UniProt P12530).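 Further: inhibition of 15-lipoxygenase enzyme activity measured with linoleic acid as the substrate; in other assays of this panel Not Active means under 50% inhibition at 10 µM.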
T4 sequence (P12530 whole entry): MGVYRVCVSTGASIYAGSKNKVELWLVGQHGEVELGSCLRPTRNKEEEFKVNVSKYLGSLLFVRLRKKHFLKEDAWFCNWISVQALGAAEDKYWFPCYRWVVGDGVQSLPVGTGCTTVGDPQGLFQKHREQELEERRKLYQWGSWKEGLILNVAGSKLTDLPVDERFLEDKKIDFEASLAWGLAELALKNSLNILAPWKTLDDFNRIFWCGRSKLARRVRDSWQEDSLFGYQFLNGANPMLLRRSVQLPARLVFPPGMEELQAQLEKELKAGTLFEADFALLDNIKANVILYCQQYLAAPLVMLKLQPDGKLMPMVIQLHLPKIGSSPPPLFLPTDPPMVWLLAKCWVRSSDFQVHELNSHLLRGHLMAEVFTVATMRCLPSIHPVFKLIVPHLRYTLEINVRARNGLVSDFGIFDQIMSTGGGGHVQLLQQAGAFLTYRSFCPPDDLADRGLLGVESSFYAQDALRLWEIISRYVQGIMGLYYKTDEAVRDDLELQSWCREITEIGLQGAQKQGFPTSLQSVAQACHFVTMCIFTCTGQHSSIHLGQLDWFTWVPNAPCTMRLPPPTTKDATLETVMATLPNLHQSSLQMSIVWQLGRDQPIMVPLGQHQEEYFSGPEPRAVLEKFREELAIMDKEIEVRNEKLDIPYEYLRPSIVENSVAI
Kind of test: biochemical. The test is classed as tissue-based, Reticulocytes. The note with it: reticulocytes.

Sequence of Kappa-type opioid receptor (P41145 whole entry): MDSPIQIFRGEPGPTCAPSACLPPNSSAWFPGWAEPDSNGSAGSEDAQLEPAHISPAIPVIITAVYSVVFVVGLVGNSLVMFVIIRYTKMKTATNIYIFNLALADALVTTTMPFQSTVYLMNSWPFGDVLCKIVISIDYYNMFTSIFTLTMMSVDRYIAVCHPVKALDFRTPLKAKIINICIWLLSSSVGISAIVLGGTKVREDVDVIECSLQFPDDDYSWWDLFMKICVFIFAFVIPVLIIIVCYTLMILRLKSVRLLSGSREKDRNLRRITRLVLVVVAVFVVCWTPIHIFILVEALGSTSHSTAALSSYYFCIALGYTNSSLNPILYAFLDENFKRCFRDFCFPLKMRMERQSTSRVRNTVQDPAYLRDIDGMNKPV
Sequence of D(1A) dopamine receptor (P21728 whole entry): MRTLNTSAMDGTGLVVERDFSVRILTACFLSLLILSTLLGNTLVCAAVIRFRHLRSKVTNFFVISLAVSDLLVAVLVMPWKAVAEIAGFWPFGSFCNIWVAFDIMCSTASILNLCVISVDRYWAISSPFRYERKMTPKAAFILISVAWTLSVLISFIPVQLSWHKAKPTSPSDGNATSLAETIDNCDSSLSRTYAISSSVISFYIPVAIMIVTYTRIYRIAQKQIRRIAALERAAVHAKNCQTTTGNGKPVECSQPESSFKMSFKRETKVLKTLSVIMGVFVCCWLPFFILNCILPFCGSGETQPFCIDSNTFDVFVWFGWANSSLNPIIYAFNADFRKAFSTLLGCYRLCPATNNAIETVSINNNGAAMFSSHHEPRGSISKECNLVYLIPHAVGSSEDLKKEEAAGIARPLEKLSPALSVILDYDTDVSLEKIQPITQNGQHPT
Sequence of Beta-1 adrenergic receptor (P08588 whole entry): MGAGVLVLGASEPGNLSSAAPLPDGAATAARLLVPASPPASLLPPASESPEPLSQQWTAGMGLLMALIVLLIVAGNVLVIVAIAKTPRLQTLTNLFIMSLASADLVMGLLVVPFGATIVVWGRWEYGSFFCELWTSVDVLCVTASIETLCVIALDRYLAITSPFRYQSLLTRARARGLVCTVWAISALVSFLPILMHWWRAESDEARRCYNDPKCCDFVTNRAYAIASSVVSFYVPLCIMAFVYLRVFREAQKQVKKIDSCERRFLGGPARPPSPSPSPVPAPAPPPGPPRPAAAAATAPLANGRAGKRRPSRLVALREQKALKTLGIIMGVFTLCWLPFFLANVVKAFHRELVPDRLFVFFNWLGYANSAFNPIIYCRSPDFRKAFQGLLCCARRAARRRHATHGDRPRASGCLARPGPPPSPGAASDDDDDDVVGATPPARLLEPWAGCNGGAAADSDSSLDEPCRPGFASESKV
Sequence of Beta-2 adrenergic receptor (P07550 whole entry): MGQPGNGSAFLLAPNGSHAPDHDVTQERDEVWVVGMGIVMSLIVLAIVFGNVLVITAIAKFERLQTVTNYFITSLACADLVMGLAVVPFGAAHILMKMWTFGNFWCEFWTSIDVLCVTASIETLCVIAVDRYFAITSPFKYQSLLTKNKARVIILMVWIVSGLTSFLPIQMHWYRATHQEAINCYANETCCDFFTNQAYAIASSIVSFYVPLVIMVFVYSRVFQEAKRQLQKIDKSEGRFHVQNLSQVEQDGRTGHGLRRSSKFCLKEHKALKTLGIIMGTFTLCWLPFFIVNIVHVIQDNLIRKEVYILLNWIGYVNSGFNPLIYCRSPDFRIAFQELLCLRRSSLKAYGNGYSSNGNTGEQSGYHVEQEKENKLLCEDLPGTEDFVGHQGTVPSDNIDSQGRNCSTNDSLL
Sequence of Adenosine receptor A2a (P29274 whole entry): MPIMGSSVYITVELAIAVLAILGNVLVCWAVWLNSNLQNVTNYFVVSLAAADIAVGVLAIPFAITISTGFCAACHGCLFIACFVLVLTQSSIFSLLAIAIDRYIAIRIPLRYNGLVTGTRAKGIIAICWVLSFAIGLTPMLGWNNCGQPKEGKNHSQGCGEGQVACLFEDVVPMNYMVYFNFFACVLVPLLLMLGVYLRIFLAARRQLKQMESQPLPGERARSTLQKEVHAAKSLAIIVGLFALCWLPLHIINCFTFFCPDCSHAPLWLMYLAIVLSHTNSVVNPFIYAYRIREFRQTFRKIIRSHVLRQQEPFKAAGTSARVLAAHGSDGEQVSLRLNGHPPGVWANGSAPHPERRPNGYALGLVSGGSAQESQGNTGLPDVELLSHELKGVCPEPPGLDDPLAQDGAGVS

One may read the IC50 as the concentration needed to halve the response being measured. The term Ki denotes a measure of affinity in units of concentration, obtained from inhibition or displacement. In the case of `CCOC(=O)[C@H](CCc1ccccc1)N[C@@H](C)C(=O)N1[C@H](C(=O)O)C[C@@H]2CCC[C@@H]21`, the IC50 result in test [1], in test [2] (cho-k1), in [3], in test [4], in [5] (sf9) and in [6] was “Not Active” throughout. The concentration for half-maximal inhibition (IC50) entry in test [7], in test [8], in test [9], in test [10], in [11] and in [12] was “Not Active” in each case. Further, the Ki entry in test [6] and in [9] was “Not Active” in each case.
Regarding `CC(C)(C)NC(=O)[C@@H]1CN(Cc2cccnc2)CCN1C[C@@H](O)C[C@@H](Cc1ccccc1)C(=O)N[C@H]1c2ccccc2C[C@H]1O.O`, the IC50 result in test [1], in test [2] (cho-k1), in test [3], in test [4], in test [5] (sf9) and in [6] was “Not Active” throughout. Besides, the 50% inhibitory concentration (IC50) entry in [7], in test [8], in [9], in [10], in test [11] and in [12] was “Not Active” in each case. In addition, the inhibition constant (Ki) result in [6] and in [9] was “Not Active” each time.
Regarding `CC(C)(C)NCC(O)c1ccc(O)c(CO)c1` (centres undefined) [ALBUTEROL], the 50% inhibitory concentration (IC50) entry in test [1], in test [2] (cho-k1), in test [3], in test [4], in test [5] (sf9) and in test [6] was “Not Active” each time. Moreover, the 50% inhibitory concentration (IC50) entry in [7], in test [9], in test [11] and in [12] was “Not Active” in each case. In addition, the inhibition constant Ki entry in test [6] and in test [9] was “Not Active” throughout.
On to `CN(C)CCCN1c2ccccc2CCc2ccc(Cl)cc21` [CLOMIPRAMINE], for which the half-maximal inhibitory concentration (IC50) result in test [1] was “Not Active”; in [2] (read-out: IC50), 91 nM; in test [3] it was “Not Active”; in [4] it was “Not Active”; in test [5] (read-out: IC50), 1410 nM; in test [7] it was “Not Active”. The IC50 result in [8], in test [10] and in test [12] was “Not Active” each time. Moreover, the Ki in test [2] stood at 13 nM.
As to `O=C(CCCN1CCC(O)(c2ccc(Cl)cc2)CC1)c1ccc(F)cc1` [HALOPERIDOL], the concentration for half-maximal inhibition (IC50) entry in test [1], in [2] (cho-k1), in test [3], in [4], in test [7] and in [8] was “Not Active” in each case. Besides, the half-inhibitory concentration (IC50) result in test [10] and in test [12] was “Not Active” throughout.
For `CC(CCc1ccccc1)NCC(O)c1ccc(O)c(C(N)=O)c1` (centres undefined) [LABETALOL], the IC50 entry in test [1], in test [2] (cho-k1), in test [3], in test [4], in test [5] (sf9) and in test [6] was “Not Active” each time. The IC50 result in test [7], in [9], in [11] and in [12] was “Not Active” throughout. Moreover, the Ki result in test [6] and in [9] was “Not Active” each time.
Regarding `CN1CCN2c3ccccc3Cc3ccccc3C2C1` (centres undefined) [MIANSERIN], the IC50 result was “Not Active” in test [1]; 2070 nM in test [2] (read-out: IC50); “Not Active” in test [3]; “Not Active” in [4]; “Not Active” in test [7]; “Not Active” in test [8]. The IC50 result in test [10] and in [12] was “Not Active” in each case. The Ki in test [2] turned out to be 288 nM.
Regarding `CC(C)(C)NCC(O)c1cc(O)cc(O)c1` (centres undefined) [TERBUTALINE], the IC50 entry in test [1], in test [2] (cho-k1), in test [3], in test [4], in test [5] (sf9) and in test [6] was “Not Active” in each case. For the same compound, the concentration for half-maximal inhibition (IC50) result in test [7], in [9], in [11] and in [12] was “Not Active” in each case. Moreover, the Ki result in [6] and in [9] was “Not Active” in each case.
On to `COC(=O)[C@@H]1[C@H]2C[C@H]3c4[nH]c5ccccc5c4CCN3C[C@@H]2CC[C@@H]1O` [YOHIMBINE], for which the half-maximal inhibitory concentration (IC50) entry in [1], in test [2] (cho-k1), in [3], in test [4], in test [6] and in test [7] was “Not Active” each time. Besides, the IC50 result in [8], in test [9], in [10], in [11] and in [12] was “Not Active” in each case. For the same compound, the Ki entry in test [6] and in test [9] was “Not Active” in each case.

The record behind these values is ChEMBL document CHEMBL1909046, “DrugMatrix in vitro pharmacology data”.
